Measurements reported in US8148368B2, “7-nitro-2-(3-nitro phenyl)-4H-3,1-benzoxazin-4-one or derivatives thereof for treating or preventing antiviral infections” (priority 2010, dated 2012).

Key:
[1] = test system: HCV 3a genotype in MDBK cells; assay: Combination with interferon-α against HCV 3a genotype in MDBK cells, real time quantitative RT-PCR; format: cell-based, hepatitis C virus; details: interferon-α 5 IU/well, 6 hrs pre-incubation, HCV 3a 2×10^4 copies per well, 18 hrs
Procedure: Surprising synergism was recorded when Compound 1 was combined with Interferon alpha. […] MDBK cells were incubated for 6 hrs with compounds and interferon alone, or combination of compound and interferon in a 96-well plat. After 6 hrs cells were infected with 2×10^4 copies of HCV 3a genotype per well and incubated for additional 18 hrs. At the end of incubation period, total RNA was extracted by Gentra kit, and the levels of HCV RNA remaining were determined, by real time Quantitative RT-PCR assay and are shown as percentage of HCV RNA survival in cells. Results are represented as the average and standard error for three independent experiments.

[2] = test system: HCV sub-genomic replicon in FCA-4 cells; assay: Antiviral effect in FCA-4 HCV 1b sub-genomic replicon cells, RT-PCR of HCV RNA; format: cell-based, hepatitis C virus
Text: FCA-4 sub genomic replicon was bicistronic construct composed of the HCV IRES (nucleotides 1 to 377 of the 5′NCR); the neomycin phosphotransferase (neo) gene; the encephalomyocarditis IRES, which mediates the translation of HCV nonstructural proteins NS3 through NS5; and the 3′NCR as shown in FIG. 2. […] FCA-4 sub-genomic replicon consists of single adaptive mutation and a deletion of a serine residue at position 1176 (Guo et al, 2001).
The bicistronic RNA molecule contains the HCV IRES and a few core-coding sequences, which are followed by neomycin phosphotransferase gene (Neor). These sequences are followed by the encephalomyocarditis virus IRES placed in front of HCV sequences encoding nonstructural protein NS3 to NS5B, terminating at the HCV 3NCR.
To determine the antiviral effect against HCV, FCA 4 cells were seeded in six well plates. After 24 h, media containing 20 μM of test compound was added to the plates. Cells were incubated at 37° C. in CO2 incubator for additional 48 h. At the end of the incubation, cells were harvested, RNA was extracted and cDNA were generated by oligo dT priming cDNA was amplified by PCR using primers specific to the 5′ UTR and NS5B gene of HCV. Amplification of GAPDH mRNA served as an internal control.

[3] = test system: HCV; details: ribavirin alone; cited from earlier work

Row | SMILES | effect of combination with interferon-α on HCV RNA [1] | GAPDH mRNA expression (internal control) ([2]; 20 μM, 48 h, FCA 4 cells) | HCV RNA expression ([2]; 20 μM, 48 h, FCA 4 cells, RT-PCR (5′ UTR and NS5B primers)) | antiviral suppression in relation to cytotoxicity ([2]; FCA4 cells) | concentration showing maximum reduction of HCV expression ([2]; dose dependent, FCA4 sub-genomic replicon, 48 h, FIG. 3) [µM] | patients with serum amino transferase levels reduced to normal [3] [%]
1 | O=c1oc(-c2cccc([N+](=O)[O-])c2)nc2cc([N+](=O)[O-])ccc12 [Compound 1, 7-nitro-2-(3-nitrophenyl)-4H-3,1-benzoxazin-4-one] | synergistic effect | remains unaffected | inhibited HCV RNA expression significantly | independent of cytotoxicity | 10 | –
2 | NC(=O)c1ncn([C@@H]2O[C@H](CO)[C@@H](O)[C@H]2O)n1 [Ribavirin, 1-β-D-ribofuranosyl-1-1,2,4-triazole-3-carboxamide] | – | – | – | – | – | 40
